The values below come from ChEMBL document CHEMBL2034968, “Discovery of novel urea-based hepatitis C protease inhibitors with high potency against protease-inhibitor-resistant mutants” (J Med Chem, 2012).

Assay [1] concerns Hepatitis C virus. As to the kind of experiment: Resistance index, ratio of EC50 for Hepatitis C virus subtype 1b harboring protease R155K mutant to EC50 for wild type Hepatitis C virus subtype 1b. In kind it is functional, Hepacivirus hominis, genotype 1b.
A short description of assay [2]: Inhibition of HCV 1a protease 1a domain. More on the design: species or system Hepacivirus hominis.
In assay [3] the test system is Hepatitis C virus. As to the kind of experiment: Antiviral activity against Hepatitis C virus subtype 1b by stable replicon assay. In kind it is functional, organism-based, Hepacivirus hominis. As to conditions: genotype 1b.
The test system of assay [4] is Hepatitis C virus. The experiment in a line: Antiviral activity against Hepatitis C virus subtype 1a by stable replicon assay. In kind it is functional, organism-based, Hepacivirus hominis. On the technique in general: Replicon systems follow genome replication, usually without infectious particles.
The subject of assay [5] is Hepatitis C virus. The experiment in a line: Antiviral activity against Hepatitis C virus subtype 1b harboring protease D168V mutant by transient replicon assay. As to conditions: genotype 1b. Format: functional, organism-based, Hepacivirus hominis.
For assay [6], the system named is Hepatitis C virus. The experiment in a line: Antiviral activity against Hepatitis C virus subtype 1b harboring protease D168A mutant by transient replicon assay. In kind it is functional, organism-based, Hepacivirus hominis. As to conditions: genotype 1b.
Assay [7] concerns Hepatitis C virus. As to the kind of experiment: Antiviral activity against Hepatitis C virus subtype 1b harboring protease A156V mutant by transient replicon assay. Conditions: genotype 1b. In kind it is functional, organism-based, Hepacivirus hominis.
The test system of assay [8] is Hepatitis C virus. As to the kind of experiment: Antiviral activity against Hepatitis C virus subtype 1b harboring protease A156T mutant by transient replicon assay. In kind it is functional, organism-based, Hepacivirus hominis. Conditions: genotype 1b.
Assay [9] deals with Hepatitis C virus. As to the kind of experiment: Antiviral activity against Hepatitis C virus subtype 1b harboring protease A156S mutant by transient replicon assay. Format: functional, organism-based, Hepacivirus hominis. Conditions: genotype 1b.
Assay [10] has as its system Hepatitis C virus. As to the kind of experiment: Antiviral activity against wild type Hepatitis C virus subtype 1b by transient replicon assay. In kind it is functional, organism-based, Hepacivirus hominis. As to conditions: genotype 1b.
Assay [11] deals with Hepatitis C virus. As to the kind of experiment: Antiviral activity against Hepatitis C virus subtype 1b harboring protease R155K mutant by transient replicon assay. As to conditions: genotype 1b. In kind it is functional, organism-based, Hepacivirus hominis.
Assay [12] relates to Hepatitis C virus. The experiment in a line: Resistance index, ratio of EC50 for Hepatitis C virus subtype 1b harboring protease D168A mutant to EC50 for wild type Hepatitis C virus subtype 1b. In kind it is functional, Hepacivirus hominis, genotype 1b.
Assay [13] has as its system Hepatitis C virus. The experiment in a line: Resistance index, ratio of EC50 for Hepatitis C virus subtype 1b harboring protease D168V mutant to EC50 for wild type Hepatitis C virus subtype 1b. In kind it is functional, Hepacivirus hominis, genotype 1b.

As usually defined, the IC50 is the midpoint of a concentration-inhibition curve. A low value points to inhibition by little substance. Usually EC50 stands for the concentration at which the effect is half-maximal. High values mean lower potency in that assay, low ones higher potency in that assay. In the case of `CCN(C)C(=O)N[C@H]1CCCCC/C=C\[C@@H]2C[C@@]2(C(=O)NS(=O)(=O)C2CC2)NC(=O)[C@@H]2C[C@@H](Oc3cc(-c4nc(C(C)C)cs4)nc4c(C)c(OC)ccc34)CN2C1=O`, the “Ratio EC50” value with Hepatitis C virus [1], in the assay on Hepatitis C virus [12] and in the assay with Hepatitis C virus [13] was <1000 in each case. Moreover, in assay [2], it took 6 nM to reach half-maximal inhibition (IC50). The EC50 with Hepatitis C virus [3] amounted to 0.4 nM; in the assay on Hepatitis C virus [4] it was 0.7 nM; in the assay on Hepatitis C virus [5], 147 nM; with Hepatitis C virus [6], 60 nM; with Hepatitis C virus [7] it was 11 nM; in the assay with Hepatitis C virus [8], 3 nM. Besides, the concentration giving a half-maximal response (EC50) in the assay with Hepatitis C virus [9] was determined as 0.5 nM; in the assay on Hepatitis C virus [10], 0.2 nM; with Hepatitis C virus [11], 25 nM.
In the case of `COc1ccc2c(O[C@@H]3C[C@H]4C(=O)N[C@]5(C(=O)NS(=O)(=O)C6CC6)C[C@H]5/C=C\CCCCC[C@H](NC(=O)N5C[C@@H](C)O[C@@H](C)C5)C(=O)N4C3)cc(-c3nc(C(C)C)cs3)nc2c1C`, half-maximal inhibition in assay [2] (IC50) was put at 2 nM. Also, the EC50 came to 1.2 nM in the assay with Hepatitis C virus [3]; 10.6 nM with Hepatitis C virus [4]; 2090 nM in the assay with Hepatitis C virus [5]; 423 nM with Hepatitis C virus [6]; 69 nM with Hepatitis C virus [7]; 23 nM in the assay on Hepatitis C virus [8]. Further, the EC50 in the assay with Hepatitis C virus [9] was found to be 1 nM; with Hepatitis C virus [10], 0.7 nM; with Hepatitis C virus [11], 233 nM.
As for `COc1ccc2c(O[C@@H]3C[C@H]4C(=O)N[C@]5(C(=O)NS(=O)(=O)C6CC6)C[C@H]5/C=C\CCCCC[C@H](NC(=O)N5CCS(=O)(=O)CC5)C(=O)N4C3)cc(-c3nc(C(C)C)cs3)nc2c1C`, in assay [2], the IC50 came out at 2 nM. Further, the EC50 in the assay on Hepatitis C virus [3] was 0.5 nM; with Hepatitis C virus [4], 2.3 nM; in the assay with Hepatitis C virus [5] it was 1420 nM; with Hepatitis C virus [6] it was 372 nM; in the assay with Hepatitis C virus [7], 38 nM; with Hepatitis C virus [8] it was 5 nM. The EC50 amounted to 0.3 nM with Hepatitis C virus [9], 0.4 nM with Hepatitis C virus [10] and 115 nM with Hepatitis C virus [11].
As for `COc1ccc2c(O[C@@H]3C[C@H]4C(=O)N[C@]5(C(=O)NS(=O)(=O)C6CC6)C[C@H]5/C=C\CCCCC[C@H](NC(=O)N(C)C(C)C)C(=O)N4C3)cc(-c3nc(C4CC4)cs3)nc2c1C`, the “Ratio EC50” value with Hepatitis C virus [1], in the assay on Hepatitis C virus [12] and in the assay with Hepatitis C virus [13] was <1000 each time. In assay [2], this molecule registered an IC50 of 0.8 nM. The EC50 in the assay on Hepatitis C virus [3] was 0.4 nM; in the assay with Hepatitis C virus [4] it was 0.3 nM; in the assay on Hepatitis C virus [5] it was 37 nM; with Hepatitis C virus [6] it was 17 nM; in the assay on Hepatitis C virus [7], 5 nM; with Hepatitis C virus [8], 2 nM. Further, the figures for the EC50 in the assay with Hepatitis C virus [9], in the assay on Hepatitis C virus [10] and with Hepatitis C virus [11] were 0.05 nM, 0.04 nM and 5 nM, respectively.
Regarding `CCN(C(=O)N[C@H]1CCCCC/C=C\[C@@H]2C[C@@]2(C(=O)NS(=O)(=O)C2CC2)NC(=O)[C@@H]2C[C@@H](Oc3cc(-c4nc(C5CC5)cs4)nc4c(C)c(OC)ccc34)CN2C1=O)C(C)C`, the “Ratio EC50” value with Hepatitis C virus [1], in the assay with Hepatitis C virus [12] and in the assay with Hepatitis C virus [13] was <1000 throughout. For the same molecule, in [2], inhibition was half-maximal at 1 nM (IC50). Further, the EC50 in the assay on Hepatitis C virus [3] worked out at 0.4 nM; in the assay on Hepatitis C virus [4], 0.4 nM; with Hepatitis C virus [5] it was 151 nM; with Hepatitis C virus [6], 50 nM; in the assay on Hepatitis C virus [7] it was 24 nM; in the assay with Hepatitis C virus [8] it was 8 nM. Besides, the EC50 with Hepatitis C virus [9] came to 0.7 nM; with Hepatitis C virus [10], 0.2 nM; in the assay with Hepatitis C virus [11] it was 16 nM.
For `COc1ccc2c(O[C@@H]3C[C@H]4C(=O)N[C@]5(C(=O)NS(=O)(=O)C6CC6)C[C@H]5/C=C\CCCCC[C@H](NC(=O)N(C)C(C)(C)C)C(=O)N4C3)cc(-c3nc(C4CC4)cs3)nc2c1C`, the “Ratio EC50” value in the assay on Hepatitis C virus [1], with Hepatitis C virus [12] and in the assay on Hepatitis C virus [13] was <1000 throughout. For the same molecule, the EC50 came to 1 nM in the assay on Hepatitis C virus [3]; 1 nM with Hepatitis C virus [4]; 84 nM with Hepatitis C virus [5]; 71 nM in the assay with Hepatitis C virus [6]; 9 nM in the assay on Hepatitis C virus [7]; 7 nM in the assay with Hepatitis C virus [8]. Also, the figures for the EC50 in the assay with Hepatitis C virus [9], in the assay on Hepatitis C virus [10] and with Hepatitis C virus [11] were 0.4 nM, 0.2 nM and 28 nM, respectively.
As to `COc1ccc2c(O[C@@H]3C[C@H]4C(=O)N[C@]5(C(=O)NS(=O)(=O)C6CC6)C[C@H]5/C=C\CCCCC[C@H](NC(=O)N(C(C)C)C(C)C)C(=O)N4C3)cc(-c3nc(C4CC4)cs3)nc2c1C`, the “Ratio EC50” value with Hepatitis C virus [1], in the assay on Hepatitis C virus [12] and with Hepatitis C virus [13] was <1000 throughout. The same molecule registered an IC50 in assay [2] of 2 nM. Besides, the EC50 was 0.9 nM with Hepatitis C virus [3]; 0.7 nM in the assay with Hepatitis C virus [4]; 105 nM with Hepatitis C virus [5]; 64 nM in the assay on Hepatitis C virus [6]; 43 nM with Hepatitis C virus [7]; 11 nM in the assay on Hepatitis C virus [8]. The EC50 in the assay with Hepatitis C virus [9] is 0.6 nM; in the assay with Hepatitis C virus [10], 0.2 nM; with Hepatitis C virus [11], 46 nM.
For `COc1ccc2c(O[C@@H]3C[C@H]4C(=O)N[C@@]5(C(=O)NS(=O)(=O)C6CC6)C[C@@H]5/C=C/CCCCN(C)C(=O)[C@@H]4C3)cc(-c3nc(C(C)C)cs3)nc2c1C`, the “Ratio EC50” value in the assay on Hepatitis C virus [1], in the assay with Hepatitis C virus [12] and in the assay with Hepatitis C virus [13] was 0.3 in each case. The same molecule came in with an IC50 in assay [2] of 10 nM. In addition, the EC50 came out at 1 nM with Hepatitis C virus [3]; 2 nM in the assay on Hepatitis C virus [4]; 140 nM in the assay with Hepatitis C virus [5]; 149 nM in the assay on Hepatitis C virus [6]; 344 nM in the assay with Hepatitis C virus [7]; 86 nM in the assay with Hepatitis C virus [8]. In addition, the EC50 came to 0.3 nM in the assay with Hepatitis C virus [9], 1 nM in the assay on Hepatitis C virus [10] and 56 nM with Hepatitis C virus [11].
As to `COc1ccc2c(O[C@@H]3C[C@H]4C(=O)N[C@]5(C(=O)O)C[C@H]5/C=C\CCCCC[C@H](NC(=O)OC5CCCC5)C(=O)N4C3)cc(-c3csc(NC(C)C)n3)nc2c1` [CILUPREVIR], the IC50 in [2] was 2 nM. Further, the EC50 in the assay with Hepatitis C virus [3] was found to be 0.5 nM; in the assay with Hepatitis C virus [4], 2.2 nM; in the assay with Hepatitis C virus [5], 438 nM; in the assay on Hepatitis C virus [6], 205 nM; in the assay with Hepatitis C virus [7], 627 nM; in the assay with Hepatitis C virus [8], 604 nM. Besides, the EC50 in the assay on Hepatitis C virus [9] worked out at 3 nM; with Hepatitis C virus [10], 1 nM; with Hepatitis C virus [11], 241 nM.
Regarding `CC(C)(C)OC(=O)N[C@H]1CCCCC/C=C\[C@@H]2C[C@@]2(C(=O)NS(=O)(=O)C2CC2)NC(=O)[C@@H]2C[C@@H](OC(=O)N3Cc4cccc(F)c4C3)CN2C1=O` [DANOPREVIR], the “Ratio EC50” value with Hepatitis C virus [1], in the assay with Hepatitis C virus [12] and with Hepatitis C virus [13] was 10 in each case. Also, the IC50 in assay [2] stood at 0.7 nM. Moreover, the EC50 with Hepatitis C virus [3] was 1.5 nM; in the assay with Hepatitis C virus [4] it was 2 nM; in the assay on Hepatitis C virus [5], 26 nM; with Hepatitis C virus [6], 39 nM; in the assay on Hepatitis C virus [7], 8 nM; with Hepatitis C virus [8], 10 nM. For the same molecule, the EC50 with Hepatitis C virus [9] was 2 nM; in the assay with Hepatitis C virus [10], 0.2 nM; in the assay on Hepatitis C virus [11], 82 nM.
